Values after ≈ are worked out from the molar mass of the structure shown. Structures can show the parent of a compound that is named as a salt.
Tested on: Acinetobacter baumannii ATCC17978
Assay: Minimal Inhibitory Concentration (MIC) assay
Type: cell-based
Details: Acinetobacter baumannii ATCC17978, CAMHB medium, 20 hours at 35±2° C., visual reading; read-out: MIC AB. ATCC17978
Description: Minimal Inhibitory Concentration Protocol (MIC) Assay:
Table 2 provides the in vitro potency of the compounds of present invention obtained against the strain Acinetobacter baumannii ATCC17978, which was assessed by an MIC (Minimal Inhibitory Concentration) assay as follows.
Test compounds were prepared from 10 mM DMSO stock solutions. The top dose was diluted from 10 mM to 2.5 mM by DMSO, followed by serial 2-fold 11 points dilutions in DMSO in a master plate (Greiner, Cat No: 651201). 2 μL compounds were transferred from the master plate into a new 96-well assay plate (Costar, 3599).
The growth medium […] Mueller Hinton Broth (CAMHIB) was prepared by adding 22 g powder (BD, 212322) in 1 L purified water, autoclaved, and supplemented with sterilized CaCl2 (20 mg per liter) and MgCl2 (10 mg per liter).
Vials of each of the test microorganisms were maintained frozen in the vapor phase of a liquid nitrogen freezer. Took out the bacterial strain ATCC 17978 from liquid nitrogen freezer, thawed it at room temperature, and diluted the bacterial in the CAMHB medium to achieve a final inoculum of 2×10^5 CFU/mL. 98 μL of the adjusted bacteria suspension was dispensed to the assay plate and pipetted 5 times.
Then the assay plates were incubated for 20 hours at 35±2° C. in ambient air with humidity. Following incubation, MIC […] value, the lowest concentration of drug that inhibits visible growth of the microorganism, was recorded by visual judgment of bacterial growth through magnification mirror of MIC reader, and the assay plates were photographed with Qcount system as image raw data. Meanwhile, the D600 of assay plates was recorded with SpectraMax Plus384 as GD raw data.

Row | SMILES | MIC [µM]
1 | COCCn1ncc(-c2ccc(-c3cnc(C(=O)Nc4ccc(C(=O)N5CCN(C(=O)C6CCCN6)CC5)c(Cl)c4)n3C)c(F)c2F)c1C (stereo not shown) [Example D29, N-[3-chloro-4-[4-(pyrrolidine-2-carbonyl)piperazine-1-carbonyl]phenyl]-5-[2,3-difluoro-4-[1-(2-methoxyethyl)-5-methyl-pyrazol-4-yl]phenyl]-1-methyl-imidazole-2-carboxamide; 2,2,2-trifluoroacetic acid] | 0.45 (≈ 0.313 µg/mL)
2 | COCCn1nc(C)c(-c2ccc(-c3cnc(C(=O)Nc4ccc(C(=O)N5CCN(C(=O)C[N+]6(C)C[C@@H](N)[C@H](OC)C6)CC5)c(Cl)c4)n3C)c(F)c2F)c1C (mixture of isomers) [Example C13, N-[4-[4-[2-[(3R,4R)-3-amino-4-methoxy-1-methyl-pyrrolidin-1-ium-1-yl]acetyl]piperazine-1-carbonyl]-3-chloro-phenyl]-5-[2,3-difluoro-4-[1-(2-methoxyethyl)-3,5-dimethyl-pyrazol-4-yl]phenyl]-1-methyl-imidazole-2-carboxamide; formic acid; formate] | 1.22
3 | Cc1nn(CC(=O)Nc2ccccc2)cc1-c1ccc(-c2cnc(C(=O)Nc3ccc(C(=O)N4CCN(C(=O)C5CC[N+](C)(C)CC5)CC4)c(Cl)c3)n2C)c(F)c1F [Example G5, 5-[4-[1-(2-anilino-2-oxo-ethyl)-3-methyl-pyrazol-4-yl]-2,3-difluoro-phenyl]-N-[3-chloro-4-[4-(1,1-dimethylpiperidin-1-ium-4-carbonyl)piperazine-1-carbonyl]phenyl]-1-methyl-imidazole-2-carboxamide; formate] | 0.32
4 | Cn1c(-c2ccc(-c3cn[nH]c3-c3ccccn3)c(F)c2F)cnc1C(=O)Nc1ccc(C(=O)N2CCN(C(=O)C3CC[N+](C)(C)CC3)CC2)c(Cl)c1 [Example I1, N-[3-chloro-4-[4-(1,1-dimethylpiperidin-1-ium-4-carbonyl)piperazine-1-carbonyl]phenyl]-5-[2,3-difluoro-4-[5-(2-pyridyl)-1H-pyrazol-4-yl]phenyl]-1-methyl-imidazole-2-carboxamide; formate] | 2.32
5 | Cc1c(-c2ccc(-c3cnc(C(=O)Nc4ccc(C(=O)N5CCN(C(=O)C6CC[N+](C)(C)CC6)CC5)c(Cl)c4)n3C)c(F)c2F)cnn1CC(=O)Nc1ccccn1 [Example G19, N-[3-chloro-4-[4-(1,1-dimethylpiperidin-1-ium-4-carbonyl)piperazine-1-carbonyl]phenyl]-5-[2,3-difluoro-4-[5-methyl-1-[2-oxo-2-(2-pyridylamino)ethyl]pyrazol-4-yl]phenyl]-1-methyl-imidazole-2-carboxamide; formate] | 0.32
6 | CO[C@H]1CCCC[C@@H]1NC(=O)Cn1cc(-c2ccc(-c3cnc(C(=O)Nc4ccc(C(=O)N5CCN(C(=O)C6CC[N+](C)(C)CC6)CC5)c(Cl)c4)n3C)c(F)c2F)c(C)n1 (racemic) [Example G32, N-[3-chloro-4-[4-(1,1-dimethylpiperidin-1-ium-4-carbonyl)piperazine-1-carbonyl]phenyl]-5-[2,3-difluoro-4-[1-[2-[[(1S,2S)-2-methoxycyelohexyl]amino]-2-oxo-ethyl]-3-methyl-pyrazol-4-yl]phenyl]-1-methyl-imidazole-2-carboxamide; formate] | 0.66
7 | Cc1nn(CC(=O)NC2CCOC2)cc1-c1ccc(-c2cnc(C(=O)Nc3ccc(C(=O)N4CCN(C(=O)C5CC[N+](C)(C)CC5)CC4)c(Cl)c3)n2C)c(F)c1F (stereo not shown) [Example G20, N-[3-chloro-4-[4-(1,1-dimethylpiperidin-1-ium-4-carbonyl)piperazine-1-carbonyl]phenyl]-5-[2,3-difluoro-4-[3-methyl-1-[2-oxo-2-(tetrahydrofuran-3-ylamino)ethyl]pyrazol-4-yl]phenyl]-1-methyl-imidazole-2-carboxamide; formate] | 2.52
8 | Cn1c(-c2ccc(-c3cn(CC(N)=O)nc3C(F)(F)F)c(F)c2F)cnc1C(=O)Nc1ccc(C(=O)N2CCN(C(=O)C3CC[N+](C)(C)CC3)CC2)c(Cl)c1 [Example F35, 5-[4-[1-(2-amino-2-oxo-ethyl)-3-(trifluoromethyl)pyrazol-4-yl]-2,3-difluoro-phenyl]-N-[3-chloro-4-[4-(1,1-dimethylpiperidin-1-ium-4-carbonyl)piperazine-1-carbonyl]phenyl]-1-methyl-imidazole-2-carboxamide; formate] | 1.24
9 | Cn1c(-c2ccc(-c3cn[nH]c3-c3cscn3)c(F)c2F)cnc1C(=O)Nc1ccc(C(=O)N2CCN(C(=O)C3CC[N+](C)(C)CC3)CC2)c(Cl)c1 [Example I5, N-[3-chloro-4-[4-(1,1-dimethylpiperidin-1-ium-4-carbonyl)piperazine-1-carbonyl]phenyl]-5-[2,3-difluoro-4-(5-thiazol-4-yl-1H-pyrazol-4-yl)phenyl]-1-methyl-imidazole-2-carboxamide; formate] | 0.58
10 | Cn1c(-c2ccc(-c3cn(C[C@H](O)CO)nc3C(F)(F)F)c(F)c2F)cnc1C(=O)Nc1ccc(C(=O)N2CCN(C(=O)C3CC[N+](C)(C)CC3)CC2)c(Cl)c1 [Example F8, N-[3-chloro-4-[4-(1,1-dimethylpiperidin-1-ium-4-carbonyl)piperazine-1-carbonyl]phenyl]-5-[4-[1-[(2S)-2,3-dihydroxypropyl]-3-(trifluoro-methyl)pyrazol-4-yl]-2,3-difluoro-phenyl]-1-methyl-imidazole-2-carboxamide; formate] | 1.41
11 | COCCn1ncc(-c2ccc(-c3cnc(C(=O)Nc4ccc(C(=O)N5CCN(C(=O)C6CCNCC6)CC5)c(Cl)c4)n3C)c(Cl)c2F)c1C [Example E4, 5-[2-chloro-3-fluoro-4-[1-(2-methoxyethyl)-5-methyl-pyrazol-4-yl]phenyl]-N-[3-chloro-4-[4-(piperidine-4-carbonyl)piperazine-1-carbonyl]phenyl]-1-methyl-imidazole-2-carboxamide; formic acid] | 0.57 (≈ 0.414 µg/mL)
12 | Cc1nn(CC(=O)NC2CCCCO2)cc1-c1ccc(-c2cnc(C(=O)Nc3ccc(C(=O)N4CCN(C(=O)C5CC[N+](C)(C)CC5)CC4)c(Cl)c3)n2C)c(F)c1F (stereo not shown) [Example G21, N-[3-chloro-4-[4-(1,1-dimethylpiperidin-1-ium-4-carbonyl)piperazine-1-carbonyl]phenyl]-5-[2,3-difluoro-4-[3-methyl-1-[2-oxo-2-(tetrahydropyran-2-ylamino)ethyl]pyrazol-4-yl]phenyl]-1-methyl-imidazole-2-carboxamide; formate] | 2.57
13 | Cc1c(-c2ccc(-c3cnc(C(=O)Nc4ccc(C(=O)N5CCN(C(=O)C6CCNCC6)CC5)c(Cl)c4)n3C)c(F)c2F)cnn1CC(F)F [Example E1, N-[3-chloro-4-[4-(piperidine-4-carbonyl)piperazine-1-carbonyl]phenyl]-5-[4-[1-(2,2-difluoroethyl)-5-methyl-pyrazol-4-yl]-2,3-difluoro-phenyl]-1-methyl-imidazole-2-carboxamide] | 0.56 (≈ 0.4 µg/mL)
14 | Cn1c(-c2ccc(-c3cn[nH]c3CCCCO)c(F)c2F)cnc1C(=O)Nc1ccc(C(=O)N2CCN(C(=O)C3CC[N+](C)(C)CC3)CC2)c(Cl)c1 [Example F21, N-[3-chloro-4-[4-(1,1-dimethylpiperidin-1-ium-4-carbonyl)piperazine-1-carbonyl]phenyl]-5-[2,3-difluoro-4-[5-(4-hydroxybutyl)-1H-pyrazol-4-yl]phenyl]-1-methyl-imidazole-2-carboxamide; formate] | 2.31
15 | Cc1n[nH]cc1-c1ccc(-c2cnc(C(=O)Nc3ccc(C(=O)N4CCN(C(=O)[C@@H]5C[C@@H](O)C[N+]5(C)C)CC4)c(Cl)c3)n2C)c(F)c1F [Example D19, N-[3-chloro-4-[4-[(2S,4R)-4-hydroxy-1,1-dimethyl-pyrrolidin-1-ium-2-carbonyl]piperazine-1-carbonyl]phenyl]-5-[2,3-difluoro-4-(3-methyl-1H-pyrazol-4-yl)phenyl]-1-methyl-imidazole-2-carboxamide; formate] | 1.07

Same assay, conditions: Acinetobacter baumannii, ATCC17978, 20 h, read-out: MIC AB. ATCC17978

Row | SMILES | MIC [µM]
16 | COCCn1ncc(-c2ccc(-c3cnc(C(=O)Nc4ccc(C(=O)N5CCN(C(=O)C6CC[N+](C)(CCS(N)(=O)=O)CC6)CC5)c(Cl)c4)n3C)c(F)c2F)c1C (stereo not shown) [Example B34, N-[3-chloro-4-[4-[1-methyl-1-(2-sulfamoylethyl)piperidin-1-ium-4-carbonyl]piperazine-1-carbonyl]phenyl]-5-[2,3-difluoro-4-[1-(2-methoxyethyl)-5-methyl-pyrazol-4-yl]phenyl]-1-methyl-imidazole-2-carboxamide; formate] | 0.65

Tested on: Acinetobacter baumannii ATCC17961
Assay: Antimicrobial susceptibility testing: 90% growth inhibitory concentration (IC90) determination
Type: cell-based
Details: Acinetobacter baumannii, ATCC17961, 16 h, 90% growth inhibitory concentration, Acinetobacter baumannii ATCC17961, Iso-Sensitest broth, OD 600 nm over 16 h; read-out: ATCC 17961 IC90
Outline: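 Growth inhibition derived in log phase from OD600 kinetics (every 20 minutes, 16h, 35±2° C) of ATCC17961 in Iso-Sensitest medium, inoculum ~5×10^5 CFU/ml. Compounds tested as twofold series, 10 points (e.g. 50 to 0.097 μM final); IC90 and IC50 reported.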

Row | SMILES | IC90 [nM]
17 | COCCn1ncc(-c2ccc(-c3cnc(C(=O)Nc4ccc(C(=O)N5CCN(C(=O)C6CCCN6)CC5)c(Cl)c4)n3C)c(F)c2F)c1C (stereo not shown) [Example D29, N-[3-chloro-4-[4-(pyrrolidine-2-carbonyl)piperazine-1-carbonyl]phenyl]-5-[2,3-difluoro-4-[1-(2-methoxyethyl)-5-methyl-pyrazol-4-yl]phenyl]-1-methyl-imidazole-2-carboxamide; 2,2,2-trifluoroacetic acid] | < 20
18 | Cn1c(-c2ccc(-c3cn[nH]c3-c3ccccn3)c(F)c2F)cnc1C(=O)Nc1ccc(C(=O)N2CCN(C(=O)C3CC[N+](C)(C)CC3)CC2)c(Cl)c1 [Example I1, N-[3-chloro-4-[4-(1,1-dimethylpiperidin-1-ium-4-carbonyl)piperazine-1-carbonyl]phenyl]-5-[2,3-difluoro-4-[5-(2-pyridyl)-1H-pyrazol-4-yl]phenyl]-1-methyl-imidazole-2-carboxamide; formate] | 432
19 | CO[C@H]1CCCC[C@@H]1NC(=O)Cn1cc(-c2ccc(-c3cnc(C(=O)Nc4ccc(C(=O)N5CCN(C(=O)C6CC[N+](C)(C)CC6)CC5)c(Cl)c4)n3C)c(F)c2F)c(C)n1 (racemic) [Example G32, N-[3-chloro-4-[4-(1,1-dimethylpiperidin-1-ium-4-carbonyl)piperazine-1-carbonyl]phenyl]-5-[2,3-difluoro-4-[1-[2-[[(1S,2S)-2-methoxycyelohexyl]amino]-2-oxo-ethyl]-3-methyl-pyrazol-4-yl]phenyl]-1-methyl-imidazole-2-carboxamide; formate] | 185

From patent US12421211B2, “Heterocyclic compounds” (Hoffmann-La Roche Inc., priority 2021, dated 2025)
